“Also recorded” adds a separate entry of the source.
Experiments:
Assay type in all cases: in vivo, mouse
CD8+ T cells = assay: flow analysis of CD8+ T cells in MC-38 tumours; conditions: flow analysis in MC-38 tumor
Experimental: FIG. 17. A, MC-38 tumor volume curve (mm^3) and B, tumorweight (g) in WT mice treated with GPR84 agonist, 3-OH dodecanoic acid (3-OH Dodeca), GPR84 antagonist, GPR84 antagonist & 3-OH Dodeca or saline (Ctrl). C, Bar charts of flow analysis in tumor corresponding to the groups described in A and B. Two-way ANOVA with Dunnett's correction for multiple comparisons (A & C). Means±SEM analyzed by Kruskal-Wallis and Dunn's correction for multiple comparison (B). Experiments were performed at least twice, n=5.
(§1) Each metabolite was dissolved in dimethyl sulfoxide (DMSO) to reach the stock concentration of 100 mM. For mice injections, stock solution of each metabolite was diluted 1:500 in saline to reach final concentration of 200 uM and 200 uL/mouse were injected intraperitoneally on day 6, day 9 and day 12-post tumour cell injection. Metabolites used: 3-Hydroxydodecanedioic acid (R and S forms) (collaborators UZH), Dodecanedioic acid (Sigma), Decanoic acid (Sigma), Unidecanoic acid (Sigma), Dodecanoic acid (Sigma), Tridecanoic acid (Sigma), Tetradecanoic acid (Angene), 3-Hydroxydecanoic acid (Sigma), 3-Hydroxydodecanoic acid (Sigma), 3-Hydroxytetradecanoic acid (Angene). GPR84 receptor blockade was performed in the subcutaneous tumour model by injecting 200 uL/mouse of 200 uM of GPR84 antagonist GLPG1205 (MCE MedChemExpress).

B16 melanoma = B16 melanoma subcutaneous tumour model; conditions: vs vehicle
Experimental: (§2) WT C57BL/6JRJ were purchased from Janvier Labs (France). All mice were kept in specific-pathogen-free conditions. Males and female littermates between 8-12 weeks were used for all the experiments. All animal experiments were performed according to Swiss animal welfare legislation and approved by the local veterinary office (Veterinaramt des Kantons Zurich).
(§3) Clostridiales strains Eubacterium hallii: DSM3353T, Faecalibacterium prausnitzii: DSM17677, Roseburia intestinalis: DSM14610T, Anaerostipes caccae: DSM14662T were obtained from PharmaBiome AG, Zurich (sometimes referred to as butyrate producers, 4 clostridia consortia CC4, or BP). All strains were cultivated at 37° C. in yeast extract, casitone and fatty acid (YCFA) medium (Lopez et al. 2012. Appl Environ Microbiol 78, 420-428). Strains were maintained under anoxic CO2 atmosphere using Hungate techniques. […] Viability of cells was confirmed using propidium iodide staining measured by flow cytometry. […]
(§4) For CRC injection models, MC38 cells were suspended in DMEM high glucose cell culture medium mixed 1:1 with Matrigel and 300,000 cells injected subcutaneously into the flanks, and mice euthanized […] after injection. Tumour development was measured every 3 days using a digital calliper. Tumour volume was calculated using the ellipsoid formula: 4/3*3.14*Length/2*(Width/2)^2, where the shorter dimension was used as width and depth. […]

MC-38 tumours = assay: MC-38 subcutaneous CRC tumour model; conditions: for anti-tumour effect, tumour volume and weight (FIG. 15): 5-FU or both; for anti-tumour effect, tumour volume and weight (FIG. 11-13): metabolite 200 uM, 200 uL/mouse i.p. day 6, 9, 12, vs vehicle; for tumour reduction, tumor volume and weight (FIG. 17A-B): GPR84 agonist/antagonist 200 uM
Experimental: as §2, with “Zurich). […]” for “Zurich).”
For CRC injection models, MC38 cells were suspended in DMEM high glucose cell culture medium mixed 1:1 with Matrigel and 300,000 cells injected subcutaneously into the flanks, and mice euthanized […] after injection. Tumour development was measured every 3 days using a digital calliper. Tumour volume was calculated using the ellipsoid formula: 4/3*3.14*Length/2*(Width/2)^2, where the shorter dimension was used as width and depth. Mice were terminated 14 days after subcutaneous injection or when tumour volume reached 1 cm^3 or the length reached 2 cm. For the other solid tumours subcutaneous injection models, B16 melanoma cells were suspended in DMEM high glucose cell culture medium mixed 1:1 with Matrigel and 200,000 cells injected into both flanks of the animal. Lewis lung carcinoma cells LLC1.1 were suspended in DMEM high glucose cell culture medium mixed 1:1 with Matrigel and 200,000 cells injected in the right flank of a mouse. PD-1 blockade was performed in the subcutaneous tumour model by injecting of 200 μg/mouse anti-PD1(CD279) antibody (BioXCell; clone 29F.1A12) or IgG isotype control (BioXCell; clone 2a3) i.p. on days 6, 9 and 12 after subcutaneous MC-38 cells injection. 5-Fluorouracil (5-FU) was administered by i.p injections of 20 mg/kg 5-FU dissolved in DMSO at days 6, 9, and 12.
as §1

LLC1.1 lung cancer = assay: LLC1.1 Lewis lung carcinoma subcutaneous tumour model; conditions: LLC.1 lung cancer; vs vehicle
Experimental: as §2, §3, §4

Row | Structure (SMILES) | expression of granzyme B and IFNγ by CD8+ T cells (FIG. 17C) (CD8+ T cells) | anti-tumour effect, tumour volume and weight (FIG. 16 A) (B16 melanoma) | anti-tumour effect, tumour volume and weight (FIG. 15) (MC-38 tumours; 3-hydroxydodecanoic acid) | anti-tumour effect, tumour volume and weight (FIG. 14) (MC-38 tumours; 3-hydroxydodecanoic acid, anti-PD-1 or both) | anti-tumour effect, tumour volume and weight (FIG. 11-13) (MC-38 tumours) | anti-tumour effect, tumour volume and weight (FIG. 11-13) (MC-38 tumours; listed as CH3(CH2)8 CHOH—(CH2)—CO2H) | anti-tumour effect, tumour volume and weight (FIG. 16 B) (LLC1.1 lung cancer) | tumour reduction, tumor volume and weight (FIG. 17A-B) (MC-38 tumours; 200 uL/mouse i.p. day 6, 9, 12) | tumour reduction, tumor volume and weight (FIG. 17A-B) (MC-38 tumours; 200 uL/mouse i.p. day 6, 9, 12, listed as 2-(hexylthio)pyramidine-4,6-diol)
1 | CCCCCCCCCC(O)CC(=O)O (stereo not shown) [3-hydroxydodecanoic acid] | similarly increased expression of granzyme B and IFNγ by CD8+ T cells | clear anti-tumour effect | comparable anti-tumour effect | comparable anti-tumour effect | most favourable anti-tumour effect; also recorded: anti-tumour effect of the bacterial metabolites was specifically induced by 3-hydroxydodecanoic acid | inhibited tumour growth | clear anti-tumour effect |  | 
2 | O=c1[nH]cc(F)c(=O)[nH]1 [5-FU, 5-fluorouracil, reference compound] |  |  | comparable anti-tumour effect |  |  |  |  |  | 
3 | O=c1nc(OC[C@@H]2COCCO2)cc2n1CCc1cc(C#CC3CC3)ccc1-2 [GPR84 antagonist, reference compound] | entirely lost this anti-tumour immunological change |  |  |  |  |  |  | completely abrogated the anti-tumour effect of 3-hydroxydodecanoic acid | 
4 | CCCCCCSc1nc(O)cc(=O)[nH]1 [ZQ-16, 2-(hexylthio)pyramidine-4,6-diol, reference compound] | similarly increased expression of granzyme B and IFNγ by CD8+ T cells |  |  |  |  |  |  | limit tumour growth in a model of cancer in vivo | inhibited tumour growth

From patent US20240217911A1, “A hydroxycarboxylic acid for the treatment of cancer” (UNIVERSITÄT ZÜRICH, priority 2021, published 2024)
